# Data as given in ChEMBL document CHEMBL3886339, “mGluR4 allosteric potentiators, compositions, and methods of treating neurological dysfunction” (2015).
# Biological target: Metabotropic glutamate receptor 4 (Homo sapiens, UniProt Q14833)
# Type: functional, cell-based, HEK293
# Sequence of Metabotropic glutamate receptor 4 (Q14833 whole entry): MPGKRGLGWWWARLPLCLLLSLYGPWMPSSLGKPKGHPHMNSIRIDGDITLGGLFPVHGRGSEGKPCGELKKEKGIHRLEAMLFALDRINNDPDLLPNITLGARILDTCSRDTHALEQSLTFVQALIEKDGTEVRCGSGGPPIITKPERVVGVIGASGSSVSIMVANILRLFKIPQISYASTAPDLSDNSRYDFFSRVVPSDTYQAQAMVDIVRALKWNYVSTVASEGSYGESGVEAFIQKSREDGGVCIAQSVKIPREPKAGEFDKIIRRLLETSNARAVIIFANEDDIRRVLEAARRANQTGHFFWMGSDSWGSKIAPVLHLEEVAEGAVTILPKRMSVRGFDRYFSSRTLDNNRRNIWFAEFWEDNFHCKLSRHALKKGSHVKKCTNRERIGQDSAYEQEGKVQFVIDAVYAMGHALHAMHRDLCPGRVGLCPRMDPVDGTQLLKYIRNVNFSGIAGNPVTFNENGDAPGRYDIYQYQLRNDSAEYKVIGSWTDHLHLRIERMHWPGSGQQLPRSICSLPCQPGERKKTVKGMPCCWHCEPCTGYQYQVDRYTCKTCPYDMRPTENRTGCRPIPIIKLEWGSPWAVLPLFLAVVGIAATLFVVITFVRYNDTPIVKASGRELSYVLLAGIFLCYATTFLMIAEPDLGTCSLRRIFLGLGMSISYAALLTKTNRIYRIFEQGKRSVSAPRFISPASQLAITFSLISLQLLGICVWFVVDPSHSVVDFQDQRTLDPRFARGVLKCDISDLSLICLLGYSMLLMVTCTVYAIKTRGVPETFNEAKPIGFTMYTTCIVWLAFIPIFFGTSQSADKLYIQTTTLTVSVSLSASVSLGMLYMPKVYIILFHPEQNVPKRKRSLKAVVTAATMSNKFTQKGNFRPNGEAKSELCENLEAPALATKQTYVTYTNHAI
row,EC50 [nM],SMILES
1,144,Cc1ccc(S(=O)(=O)n2cc(NC(=O)c3ccccn3)cn2)cc1C
2,266,O=C(Nc1cnn(S(=O)(=O)c2ccc(C(F)(F)F)cc2)c1)c1ccccn1
3,4160,O=C(Nc1cnn(S(=O)(=O)c2ccc(F)c(F)c2)c1)c1nccs1
4,151,Cc1cc(S(=O)(=O)n2cc(NC(=O)c3ccccn3)cn2)ccc1Cl
5,234,O=C(Nc1cnn(S(=O)(=O)c2cc(F)c(F)c(F)c2)c1)c1ccccn1
6,5240,O=C(Nc1cnn(S(=O)(=O)c2cccc(Cl)c2F)c1)c1ccccn1
7,204,O=C(Nc1cnn(S(=O)(=O)c2ccc(Cl)c(Cl)c2)c1)c1ccccn1
8,1770,O=C(Nc1cnn(S(=O)(=O)c2cc(F)c(F)cc2F)c1)c1ccccn1
9,2340,Cc1cc(F)ccc1S(=O)(=O)n1cc(NC(=O)c2ccccn2)cn1
10,234,Cc1cccc(S(=O)(=O)n2cc(NC(=O)c3nccs3)cn2)c1
11,652,Cc1ccc(S(=O)(=O)n2cc(NC(=O)c3nccs3)cn2)cc1C
12,170,COc1ccc(S(=O)(=O)n2cc(NC(=O)c3ccccn3)cn2)cc1
13,486,Cc1ccc(S(=O)(=O)n2cc(NC(=O)c3ccccn3)cn2)c(C)c1
14,1170,O=C(Nc1cnn(S(=O)(=O)c2cc(F)c(F)cc2Cl)c1)c1ccccn1
15,324,Cc1ccc(S(=O)(=O)n2cc(NC(=O)c3nccs3)cn2)cc1
16,137,Cc1ccc(S(=O)(=O)n2cc(NC(=O)c3ccccn3)cn2)cc1F
17,260,COc1ccc(S(=O)(=O)n2cc(NC(=O)c3ccccn3)cn2)cc1Cl
18,138,O=C(Nc1cnn(S(=O)(=O)c2ccc(F)c(Cl)c2)c1)c1ccccn1
19,9880,Cc1ccc(S(=O)(=O)n2cc(NC(=O)c3ccccn3)cn2)cc1
20,128,O=C(Nc1cnn(S(=O)(=O)c2ccc(Cl)cc2F)c1)c1ccccn1
21,2250,O=C(Nc1cnn(S(=O)(=O)c2cc(Cl)ccc2F)c1)c1ccccn1
22,282,O=C(Nc1cnn(S(=O)(=O)c2ccc(F)c(F)c2F)c1)c1ccccn1
23,197,O=C(Nc1cnn(S(=O)(=O)c2cc(Cl)ccc2Cl)c1)c1ccccn1
24,1620,O=C(Nc1cnn(S(=O)(=O)c2ccc(F)cc2F)c1)c1ccccn1
25,3910,O=C(Nc1cnn(S(=O)(=O)c2ccc(Cl)c(F)c2)c1)c1ccccn1
26,163,Cc1cccc(S(=O)(=O)n2cc(NC(=O)c3ccccn3)cn2)c1
27,248,CCc1ccc(S(=O)(=O)n2cc(NC(=O)c3ccccn3)cn2)cc1
28,1740,O=C(Nc1cnn(S(=O)(=O)c2ccc(F)c(F)c2)c1)c1ccccn1
29,124,Cc1cc(S(=O)(=O)n2cc(NC(=O)c3ccccn3)cn2)ccc1F
